# Where a SMILES comes first, the peptide text is derived from it.
# B1: Vfa1: yeast protein Vfa1 that is proposed to positively regulate Vps4 activity (protein, UniProt P40080 1-203, looked up)
# VPS4-associated protein 1: MINEYVARKVALKDMQPCAICSKPSTTVLYNASGPDWLYTCEIHLQDNPQFVIPLYSTEYNEAVAQLKLVKGKMDSLTSAQTQLGSWDGWVTKIFSKKEKETNNSKDPDPTTTDSTDTSPQAKNDAEILSETKKQYSKILDKVTELQRKNRKYELAKIMFESRLLRKRTEQVNRERYLKEQENYSNTDPEELLRKHVFPSVPK
# B2: Vps20: the yeast CHMP6 homologue (protein, UniProt Q04272 2-221, looked up)
# Vacuolar protein …: GQKSSKVHITKTDRAILEVKRSKDEIHKFTRRTDNLILVEKSQLKDLIRKNPENYKSNMKVRFLLKRIHYQEHLLQQASDQLINLENMVSTLEFKMVEKQFINGLKNGNEILKKLNKEFSNVDELMDDVQDQIAYQNEINETLSRSLVGTSNYEDDLDKELDALESELNPEKMNNAKVANMPSTEGLPSLPQGEQTEQKEREEFATEERSDTKEPLALLS
# How the values were obtained:
# [1] = target: T1, human VPS4 MIT domain (residues 1–84) (Homo sapiens, UniProt Q9UN37); assay: Isothermal titration calorimetry, titrant into VPS4A MIT domain; assay type: binding; conditions: ITC, 25°C; for -TΔS / N (stoichiometry) / ΔG / ΔH: n = 2–4
# T1 construct: The MIT domain (residues 1–84) of human VPS4A (UniProt Q9UN37); GST with human rhinovirus 3C cleavage site (N, cleaved yes); made in house; host or cells: Escherichia coli T7 Express lysY/Iq
# T1 sequence (Q9UN37 1-84): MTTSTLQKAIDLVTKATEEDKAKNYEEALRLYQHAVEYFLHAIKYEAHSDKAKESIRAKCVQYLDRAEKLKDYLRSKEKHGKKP
# Procedure: Proteins were expressed in Escherichia coli T7 Express lysY/I^q cells (New England Biolabs) in 2×TY medium at 37°C to an OD600 of 0.8–1.2 before inducing protein expression by addition of 0.4 mM isopropyl β-D-thiogalactopyranoside (IPTG). Expression of GST-tagged pUL71 truncations was induced at 37°C for 3 h, whereas expression of GST-VPS4A MIT domain was induced at 22°C for 16 h. Cells were resuspended at 4°C in GSH lysis buffer (20 mM Tris pH 7.5, 300 mM NaCl, 0.5 mM MgCl2, 1.4 mM β-mercaptoethanol, 0.05% TWEEN-20) supplemented with 200–400 U bovine DNase I (Merck) and 200 μL EDTA-free protease inhibitor cocktail (Merck) before lysis using a TS series cell disruptor (Constant Systems) at 24 kpsi. Lysates were cleared by centrifugation (40,000×g, 30 min, 4°C) and incubated with glutathione Sepharose 4B (Cytiva) for 1 h at 4°C before extensive washing (≥ 20 column volumes) with GSH wash buffer (20 mM Tris pH 7.5, 300 mM NaCl, 1 mM DTT) and elution using wash buffer supplemented with 25 mM reduced L-glutathione. GST-tagged pUL71 truncations were subjected to size-exclusion chromatography (SEC) using a Superdex 200 16/600 column (Cytiva) equilibrated in GSH wash buffer. For GST-VPS4A MIT domain, the GST tag was removed by supplementing the pooled SEC fractions containing the protein of interest with 0.5 mM EDTA and incubating overnight at 4°C with 50 μg of GST-tagged human rhinovirus 3C protease. Free GST and uncleaved GST-VPS4A MIT domain were captured using glutathione Sepharose and the cleaved complex was subjected to SEC using an S75 10/300 GL column (Cytiva) equilibrated in 50 mM HEPES pH 8, 100 mM NaCl, 0.5 mM Tris(2-carboxyethyl)phosphine (TCEP).
# Where necessary, proteins were exchanged into ITC buffer (50 mM HEPES pH 8, 100 mM NaCl, 0.5 mM TCEP) by SEC using Superdex 200 (GST-tagged titrants) or 75 (VPS4 MIT domain) 10/300 GL columns (Cytiva), or by extensive dialysis using tubing with a 3.5 kDa molecular weight cut-off (Pierce). Protein concentrations were estimated from A280 using extinction coefficients calculated from the protein sequence. Peptides encoding residues 166–181 of human CHMP6 or various truncations of HCMV pUL71 were purchased from Genscript at >95% purity and the dry peptides were resuspended in ITC buffer to the desired concentration. ITC experiments were performed at 25°C using an MicroCal PEAQ-ITC automated calorimeter (Malvern Panalytical). Titrants (GST-pUL71, GST-CHMP6 or peptides) were titrated into VPS4A MIT domain using either 19×2 μL or 12×3 μL injections (S1 Table). Data were analysed using the MicroCal PEAQ-ITC analysis software (Malvern Panalytical) and fitted using a one-site binding model.
# S1 Table. Thermodynamic properties of the interactions with VPS4 MIT domain. As quantitated by isothermal titration calorimetry (ITC). Data for independent experiments are shown. For all, the cell contained human VPS4 MIT domain (residues 1-84) and pUL71 is from HCMV unless stated otherwise. –, no binding detected.
# [2] = target: VPS4A MIT domain (residues 1–84) (human) (UniProt Q9UN37); assay: ITC; titrants (GST-pUL71, GST-CHMP6 or peptides) titrated into VPS4A MIT domain in the cell; 25°C; 50 mM HEPES pH 8, 100 mM NaCl, 0.5 mM TCEP; 19×2 μL or 12×3 μL injections; one-site binding model
# yeast Vps4 = conditions: reported; cited from earlier work
molecule,measurement,setting,value
CC[C@H](C)[C@H](NC(=O)[C@H](CCC(N)=O)NC(=O)[C@@H](N)CCC(=O)O)C(=O)N[C@@H](CCC(=O)O)C(=O)N[C@@H](CC(C)C)C(=O)N1CCC[C@H]1C(=O)N[C@@H](CCC(=O)O)C(=O)N[C@H](C(=O)N1CCC[C@H]1C(=O)N[C@@H](CO)C(=O)N[C@@H](CCC(=O)O)C(=O)N1CCC[C@H]1C(=O)N[C@@H](CC(C)C)C(=O)N1CCC[C@H]1C(=O)N[C@@H](CCC(=O)O)C(=O)N[C@@H](CCCCN)C(=O)O)C(C)C [CHMP6 peptide] (H-EQIELPEVPSEPLPEK-OH; N-terminus and C-terminus assumed),-TΔS,"[1]; pH 8, mean ± SD",-5.52 ± 0.58 kcal/mol
same,N (stoichiometry),"[1]; pH 8, mean ± SD",1.02 ± 0.17
same,ΔG,"[1]; pH 8, mean ± SD",-6.85 ± 0.38 kcal/mol
same,ΔH,"[1]; pH 8, mean ± SD",-1.33 ± 0.51 kcal/mol
same,-T∆S,"[1]; replicate 1, pH 8",-6.36 kcal/mol
same,N (sites),"[1]; replicate 1, pH 8",1
same,∆G,"[1]; replicate 1, pH 8",-7.2 kcal/mol
same,∆H,"[1]; replicate 1, pH 8",-0.844 kcal/mol
same,-T∆S,"[1]; replicate 2, pH 8",-5.11 kcal/mol
same,N (sites),"[1]; replicate 2, pH 8",0.79
same,∆G,"[1]; replicate 2, pH 8",-7.15 kcal/mol
same,∆H,"[1]; replicate 2, pH 8",-2.04 kcal/mol
same,-T∆S,"[1]; replicate 3, pH 8",-5.14 kcal/mol
same,N (sites),"[1]; replicate 3, pH 8",1.1
same,∆G,"[1]; replicate 3, pH 8",-6.46 kcal/mol
same,∆H,"[1]; replicate 3, pH 8",-1.32 kcal/mol
same,-T∆S,"[1]; replicate 4, pH 8",-5.46 kcal/mol
same,N (sites),"[1]; replicate 4, pH 8",1.17
same,∆G,"[1]; replicate 4, pH 8",-6.57 kcal/mol
same,∆H,"[1]; replicate 4, pH 8",-1.1 kcal/mol
CC[C@H](C)[C@H](NC(=O)[C@@H](N)CCC(=O)O)C(=O)N[C@@H](CC(=O)O)C(=O)N1CCC[C@H]1C(=O)N[C@@H](CC(C)C)C(=O)N[C@@H](CC(C)C)C(=O)N[C@@H](Cc1c[nH]cn1)C(=O)N[C@@H](CCC(N)=O)C(=O)N[C@@H](CCC(=O)O)C(=O)N[C@H](C(=O)NCC(=O)N[C@@H](CC(C)C)C(=O)N[C@@H](Cc1ccc(O)cc1)C(=O)N[C@@H](CCC(N)=O)C(=O)N[C@@H](C)C(=O)N[C@@H](CC(C)C)C(=O)N1CCC[C@H]1C(=O)N[C@@H](CC(N)=O)C(=O)N[C@@H](C)C(=O)N[C@H](C(=O)N[C@H](C(=O)N[C@@H](CCC(=O)O)C(=O)N[C@@H](C)C(=O)N1CCC[C@H]1C(=O)N[C@@H](CO)C(=O)N[C@@H](CCC(=O)O)C(=O)O)[C@@H](C)O)C(C)C)[C@@H](C)O [HHV6 pUL71 peptide] (H-EIDPLLHQETGLYQALPNAVTEAPSE-OH; N-terminus and C-terminus assumed),-TΔS,"[1]; pH 8, mean ± SD",1.01 ± 1.62 kcal/mol
same,N (stoichiometry),"[1]; pH 8, mean ± SD",1.18 ± 0.03
same,ΔG,"[1]; pH 8, mean ± SD",-6.16 ± 0.11 kcal/mol
same,ΔH,"[1]; pH 8, mean ± SD",-7.17 ± 1.52 kcal/mol
same,-T∆S,"[1]; replicate 1, pH 8",-0.117 kcal/mol
same,N (sites),"[1]; replicate 1, pH 8",1.16
same,∆G,"[1]; replicate 1, pH 8",-6.26 kcal/mol
same,∆H,"[1]; replicate 1, pH 8",-6.14 kcal/mol
same,-T∆S,"[1]; replicate 2, pH 8",0.27 kcal/mol
same,N (sites),"[1]; replicate 2, pH 8",1.22
same,∆G,"[1]; replicate 2, pH 8",-6.18 kcal/mol
same,∆H,"[1]; replicate 2, pH 8",-6.45 kcal/mol
same,-T∆S,"[1]; replicate 3, pH 8",2.87 kcal/mol
same,N (sites),"[1]; replicate 3, pH 8",1.17
same,∆G,"[1]; replicate 3, pH 8",-6.04 kcal/mol
same,∆H,"[1]; replicate 3, pH 8",-8.91 kcal/mol
CC[C@H](C)[C@H](NC(=O)[C@H](CCC(=O)O)NC(=O)[C@H](CCCNC(=N)N)NC(=O)[C@H](CCC(=O)O)NC(=O)[C@H](Cc1c[nH]cn1)NC(=O)[C@H](CC(N)=O)NC(=O)[C@@H](NC(=O)[C@@H]1CCCN1)[C@@H](C)O)C(=O)N[C@@H](CC(C)C)C(=O)N[C@@H](CC(=O)O)C(=O)N[C@@H](CC(C)C)C(=O)N[C@@H](CCSC)C(=O)N[C@@H](CCCNC(=N)N)C(=O)N[C@@H](Cc1c[nH]cn1)C(=O)N[C@@H](CO)C(=O)N1CCC[C@H]1C(=O)N[C@@H](CC(=O)O)C(=O)N[C@H](C(=O)N1CCC[C@H]1C(=O)N[C@@H](CCCNC(=N)N)C(=O)N[C@@H](CCC(=O)O)C(=O)N[C@@H](C)C(=O)N[C@H](C(=O)N[C@@H](CCSC)C(=O)N[C@@H](CO)C(=O)N1CCC[C@H]1C(=O)O)C(C)C)C(C)C [pUL71 (300–325) peptide] (H-PTNHEREILDLMRHSPDVPREAVMSP-OH),Kd,"[1]; 50 mM HEPES pH 8, 100 mM NaCl, 0.5 mM TCEP, one-site model, mean ± SD, n = 2–4 independent experiments",5.59 ± 0.34 µM
CHMP6 MIM2 peptide (from UniProt Q96FZ7 166-181),Kd,[2],11.2 µM
same,dH,[2],-1.33 kcal/mol
same,stoichiometry N,[2],1.02
GST-CHMP6: GST-tagged CHMP6 MIM2 motif (residues 168–181),-TΔS,"[1]; pH 8, mean ± SD",-4.81 ± 0.62 kcal/mol
same,ΔG,"[1]; pH 8, mean ± SD",-7.18 ± 0.12 kcal/mol
same,-T∆S,"[1]; replicate 1, pH 8",-5.25 kcal/mol
same,Kd,"[1]; replicate 1, pH 8",4.76 µM
same,N (sites),"[1]; replicate 1, pH 8",0.786
same,∆G,"[1]; replicate 1, pH 8",-7.26 kcal/mol
same,∆H,"[1]; replicate 1, pH 8",-2.02 kcal/mol
same,-T∆S,"[1]; replicate 2, pH 8",-4.37 kcal/mol
same,Kd,"[1]; replicate 2, pH 8",6.32 µM
same,N (sites),"[1]; replicate 2, pH 8",0.894
same,∆G,"[1]; replicate 2, pH 8",-7.09 kcal/mol
same,∆H,"[1]; replicate 2, pH 8",-2.72 kcal/mol
GST-pUL71 (283–336) (domain or fragment),Kd,[2],3.02 µM
same,dH,[2],-10.1 kcal/mol
same,stoichiometry N,[2],0.91
GST-pUL71 (300–325) (domain or fragment),Kd,[2],2.25 µM
same,dH,[2],-6.66 kcal/mol
same,stoichiometry N,[2],1.22
GST-pUL71 (300–361) (domain or fragment),Kd,[2],2.98 µM
same,dH,[2],-10.1 kcal/mol
same,stoichiometry N,[2],0.87
GST-pUL71(283–361) (domain or fragment),Kd,[2],2.84 µM
same,dH,[2],-9.05 kcal/mol
same,stoichiometry N,[2],1
HHV6 pU44 vMIM2 peptide (residues 174–199) (from UniProt A0A140AK71 174-199),Kd,[2],30.9 µM
same,dH,[2],-7.17 kcal/mol
same,stoichiometry N,[2],1.18
pUL71 (300–325) peptide,dH,[2],-6.22 kcal/mol
same,stoichiometry N,[2],1.38
B1,Kd,yeast Vps4,1.8 µM
same,fold tighter binding to Vps4 than Vps20,yeast Vps4,approximately 100 fold
B2,Kd,yeast Vps4,188 µM

# Reference: publication PMC11218997, “Human cytomegalovirus deploys molecular mimicry to recruit VPS4A to sites of virus assembly” (PLOS Pathogens, 2024)
